Like-named read-outs stand apart in the source and are kept apart here.
Legend:
Type in all cases: cell-based, mouse
[1] = test system: murine CD4+ CD25− T cells, CD8+ T cells, B cells; assay: T and B cell activation, proliferation, cytokine production and Th1/Th2/iTreg differentiation
Description: FIG. 2A, Left, is a graph showing dose response analyses performed on activated carboxyfluorescein succinimidyl ester (CFSE)-labeled CD4^+CD25^− T cells in the presence of DMSO, 40 nM MAZ1310, or increasing concentrations of halofuginone (HF) (1.25-40 nM). CFSE dilution and cell surface CD25 expression were determined 48 hours after activation. Intracellular cytokine production was determined on day 4 or 5 following restimulation with phorbol myristate acetate (PMA) and ionomycin. […] FIG. 2A, Right is a graph showing dose-response analyses of HF effects on CD8^+ T cell or B cell function. Cells were activated in the presence of DMSO, 40 nM MAZ1310, or increasing concentrations of HF (1.25-40 nM). CFSE dilution, cell surface CD25 expression, and intracellular cytokine production were determined as above 2-5 days after activation.
At approximately 10-fold higher concentrations (>20 nM), HF induced a general inhibition of T and B cell activation, proliferation, and effector function (FIG. 2A, 2B).
(§1) Purified CD4^+ CD25^− T cells were activated in vitro as previously described (Djuretic et al., Nat. Immunol. 8:145, 2007) using 0.3 μg/ml hamster anti-mouse CD3 (clone 145-2C11) (ATCC—Manassas, Va.) and 0.5 μg/ml hamster anti-mouse CD28 (BD Pharmingen—San Jose, Calif.). Activated cell cultures were differentiated using the following combinations of cytokines and antibodies: iTreg-recombinant human TGFβ1 (3 ng/ml—R&D systems, Minneapolis, Minn.), Th17-TGFβ1 (3 ng/ml) plus recombinant mouse IL-6 (30 ng/ml—R&D systems). Th1 and Th2 differentiation was performed as previously described (Djuretic et al., Nat. Immunol. 8:145, 2007). Human IL-2 supernatant (National Cancer Institute) was used in culture at 0.01 U/ml and was added at 48 hours-post activation when T cells were split into tissue culture wells lacking CD3 and CD28 antibodies, with the exception of Th17 cultures that were maintained in the absence of exogenous IL-2. CD8^+ T cells were activated with 1 μg/ml anti-CD3 and 1 μg/ml anti-CD28 and were expanded in 0.1 U/ml IL-2 until day 6 post activation. CD43-depleted B cells were activated in vitro by culturing with 25 μg/ml LPS (Sigma—St. Louis, Mo.) for 3-4 days in the presence or absence of TGFβ. All reagents (see below) were added at the time of T cell activation and again at 48 hours post activation unless indicated otherwise. For some experiments, purified CD4^+ CD25^− T cells, CD8^+ T cells or B cells were labeled with 1 μM CFSE (Invitrogen) prior to activation in accordance with manufacturer's instructions. Human T cell activation was performed by plating purified monocytes in a 96-well flat bottom plate at a concentration of 2×10^4 cells per well in complete medium overnight. 10^5 purified human memory T cells were added to monocyte cultures in the presence of soluble anti-CD3/anti-CD28 beads (Dynabeads, Invitrogen). T cells were expanded in the presence HF or MAZ1310 for up to 6 days.
Cytokines secreted into media supernatant were measured using the mouse Th1/Th2 cytometric bead array (CBA—BD Pharmingen) in accordance with manufacturers instructions. Briefly, CD4+ CD25− T cells were activated in anti-CD3/anti-CD28-coated tissue culture wells (see above) and supernatants were collected at the indicated times.
For detection of intracellular cytokines in murine cells, cultured T or B cells were stimulated with 10 nM PMA (Sigma) and […] (Sigma) for 4-5 hours in the presence of […] brefeldin A (Sigma). Stimulated cells were harvested, washed with PBS and fixed with PBS plus 4% paraformaldehyde at room temperature for 20 minutes. Cells were then washed with PBS, permeabilized with PBS supplemented with 1% BSA and 0.5% saponin (Sigma) at room temperature for 10 minutes before cytokine-specific antibodies were added and incubated with cells for an additional 20 minutes at room temperature. […]

[2] = test system: murine CD4+ CD25− T cells; assay: Th17 differentiation of activated CD4+ CD25− T cells (TGFβ plus IL-6; IL-17+ IFNγ− cells); details: for rescue of HF-inhibited Th17 differentiation by added amino acids: 1 mM amino acids; for IC50: Mus musculus, T-cell
Description: as §1
MAZ1310 (Kamberov, Ph.D. Dissertation, Harvard University, 2008) was generated by chemical derivatization of halofuginone and was used at equal concentrations as a negative control. HF and MAZ1310 were prepared as 100 mM stock solutions in DMSO and diluted to the indicated concentrations. SB-431542 (Inman et al., Mol. Pharmacol. 62:65, 2002) (Tocris bioscience—Ellisville, Mo.) was prepared as a 10 mM stock solution in DMSO and was used in culture at 10 μM. L-tryptophanol was prepared as a 20 mM stock solution in 0.1 M NaOH, pH 7.4 and was used at 0.2 mM. For amino acid starvation experiments, T cells were activated and differentiated as above in D-MEM medium without L-cysteine and L-methionine (Invitrogen—Carlsbad, Calif.), or D-MEM medium without L-leucine. Stocks containing 20 mM L-cysteine (Sigma—St. Louis, Mo.) plus 10 mM L-methionine (Sigma), or 400 mM L-leucine (Sigma) were prepared in ddH2O, pH 1.0 and were added to medium at the indicated concentrations.
For detection of intracellular cytokines in murine cells, cultured T or B cells were stimulated with 10 nM PMA (Sigma) and […] (Sigma) for 4-5 hours in the presence of 10 mM brefeldin A (Sigma). Stimulated cells were harvested, washed with PBS and fixed with PBS plus 4% paraformaldehyde at room temperature for 20 minutes. Cells were then washed with PBS, permeabilized with PBS supplemented with 1% BSA and 0.5% saponin (Sigma) at room temperature for 10 minutes before cytokine-specific antibodies were added and incubated with cells for an additional 20 minutes at room temperature.

Xbp-1 splicing = assay: ER stress / unfolded protein response (Xbp-1 splicing) in T cells; details: for Xbp-1 splicing: TCR activation 4 hours, 1 μg/ml tunicamycin, 10 nM HF
Description: FIG. 5. […] FIG. 5A depicts western blot and Xbp1 splicing analysis of CD4^+ CD25^− T cells left unstimulated, or activated through the TCR for 4 hours in complete medium (complete—200 μM Cys/100 μM Met), medium lacking Cys/Met (−Cys/Met) or complete medium containing 1 μg/ml tunicamycin, 10 nM HF or 10 nM MAZ1310. Western blotting was performed on whole cell extracts with the indicated antibodies. Xbp-1 splicing assay was performed on cDNA synthesized from T cell cultures.

[3] = low concentrations of HF (1-10 nM)
[4] = low concentrations of tunicamycin

For O=C(CC1NCCCC1O)Cn1cnc2cc(Br)c(Cl)cc2c1=O (racemic) [HF, halofuginone], the “concentration inducing general inhibition of T and B cell activation, proliferation, and effector function” value [1] was > 20 nM, the CD25 upregulation [1, 3] was “did not affect” and the T cell proliferation [1, 3] was “did not affect”. The “production of IL-2, TNF, or IFNγ” value [1, 3] was “did not affect”, the “Th1, Th2 or iTreg differentiation (IFNγ, IL-4, or Foxp3 expression)” value ([1]; low-dose HF) was “failed to modulate” and the “IL-17 expression with IFNγ and IL-4 blocked by neutralizing antibodies” value [2] was “reduced IL-17 expression”. For the same compound, the “Th17 differentiation in T cells transduced with RORγt-expressing vs empty retroviruses” value [2] was “inhibited Th17 differentiation as effectively”, the “IL-17 expression in cells with equivalent number of cell divisions (CFSE dilution)” value ([2]; 5 nM, 10 nM HF) was “inhibited IL-17 expression in a dose-dependent manner” and the “IL-17 expression in T cells lacking Foxp3” value ([2]; 10 nM HF) was “strongly repressed IL-17 expression”. For the same compound, the “Th17 differentiation of T cells expressing STAT3C” value ([2]; 10 nM HF) was “remained capable of differentiating into Th17 cells”, the “upregulation of RORγt or RORα during Th17 differentiation” value ([2]; 10 nM HF) was “did not interfere” and the “time of HF addition for inhibition of IL-17 expression” value ([2]; 10 nM HF added at times after activation) was “most pronounced when HF was added during a 12-hour window at the start of the culture period”. The “rescue of HF-inhibited Th17 differentiation by added amino acids” value ([2]; 10 nM HF) was “only proline rescued Th17 differentiation”, the “rescue of HF-inhibited Th17 differentiation by added amino acids” value ([2]; 10 nM HF, listed as halofuginone) was “Proline, and no other added amino acid, rescues the inhibition of Th17 differentiation” and the “Foxp3 expression in T cells differentiated with TGFβ plus IL-6” value ([2]; 10 nM HF, day 3) was “enhanced Foxp3 expression”. For the same compound, the “expression of IL-17 and IL-17f mRNA” value ([2]; 10 nM, 4 days, Th17 conditions) was “impaired”, the IC50 ([2]; 96 h, restimulation on day 4-5, read-out: IC50 for Th17 differentiation (percentage of IL-17+ IFNγ− cells)) was 3.6 nM and the IC50 ([2]; read-out: concentration giving 50% inhibition of Th17 cell development) was ~3 nM. For the same compound, the “Th17 differentiation of cells expressing YFP or no transgene” value ([2]; TAT-Cre treated, TGFβ plus IL-6) was “strongly impaired Th17 differentiation”, the IL-17 production [2, 3] was “strongly reduced” and the “expression of hallmark ER stress response genes” value (Xbp-1 splicing) was “did not induce”. For the same compound, the Xbp-1 splicing (Xbp-1 splicing) was “without promoting Xbp-1 splicing”.

In the case of tunicamycin, the “Th1 and Th2 differentiation” value [1, 4] is reported as “preferentially impaired Th1 and Th2 differentiation”, the “IL-17 expression in T cells” value [2, 4] is reported as “little influence on IL-17 expression” and the Xbp-1 splicing (Xbp-1 splicing) is reported as “together with Xbp-1 splicing”.
